# Strand notation (5' to 3'): a small letter for the sugar, then the base; units joined by * are phosphorothioate-linked, units joined directly phosphodiester-linked; [ ] holds rarer units or linkages, { } end groups; capitals alone tell only the bases. k = constrained ethyl (cEt); [5mC] = 5-methylcytosine; d = 2'-deoxy (DNA)
# System: Yap1 mRNA
# Experiment: Antisense inhibition of human Yap1 in A-431 cells by cEt gapmers, single dose (Example 3, RTS36584)
# Assay type: cell-based
# Details: Table 8; A-431 cells, 5,000 cells per well, free uptake, 2,000 nM, approximately 48 hours; RTS36584; normalized to RIBOGREEN; Yap1 mRNA relative to untreated control cells
# Summary of the method: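 Values are % untreated control: Yap1 mRNA by quantitative RT-PCR (RTS36584), normalized to total RNA by RiboGreen. Before RNA isolation, 5,000 A-431 cells per well were exposed ~48 h to 2,000 nM 16-mer cEt gapmer, delivered without transfection reagent.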
row,Substance,YAP1 (% UTC)
1,958411 (antisense k[5mC]*kT*kT*dT*dA*d[5mC]*d[5mC]*dA*dA*dA*dA*d[5mC]*dG*kA*kG*kG) [Compound 958411],90 % UTC
2,958385 (antisense kG*k[5mC]*kG*d[5mC]*dG*d[5mC]*dG*d[5mC]*dA*dT*dT*dG*dT*kG*k[5mC]*kA) [Compound 958385],115 % UTC
3,958409 (antisense kT*kT*kA*d[5mC]*d[5mC]*dA*dA*dA*dA*d[5mC]*dG*dA*dG*kG*kG*kT) [Compound 958409],99 % UTC
4,958419 (antisense kT*kA*kA*dG*dA*dG*d[5mC]*d[5mC]*dT*dA*d[5mC]*d[5mC]*dT*kG*kA*k[5mC]) [Compound 958419],68 % UTC
5,958389 (antisense k[5mC]*kG*kG*dA*dG*dG*d[5mC]*dG*d[5mC]*dG*d[5mC]*dG*d[5mC]*kA*kT*kT) [Compound 958389],126 % UTC
6,958349 (k[5mC]*k[5mC]*kG*dA*dG*dT*d[5mC]*d[5mC]*d[5mC]*d[5mC]*dG*d[5mC]*dG*kG*kA*k[5mC]; antisense) [Compound 958349],81 % UTC

# Same assay, conditions: Table 9; A-431 cells, 5,000 cells per well, free uptake, 2,000 nM, approximately 48 hours; RTS36584; normalized to RIBOGREEN; Yap1 mRNA relative to untreated control cells
row,Substance,YAP1 (% UTC)
1,958511 (k[5mC]*kA*k[5mC]*dT*dA*d[5mC]*d[5mC]*dA*d[5mC]*dA*d[5mC]*dT*dA*kT*kT*kA; antisense) [Compound 958511],31 % UTC
2,958541 (kG*kT*kA*dT*dT*d[5mC]*dT*dA*dT*d[5mC]*d[5mC]*dA*dG*kG*kG*kT; antisense) [Compound 958541],4 % UTC
3,958741 (antisense kG*kT*kT*dA*d[5mC]*dT*dG*d[5mC]*dA*dA*d[5mC]*dT*dG*k[5mC]*k[5mC]*k[5mC]) [Compound 958741],14 % UTC
4,958646 (kT*kA*kT*dT*dA*dT*dA*dT*dG*dG*d[5mC]*dT*dA*kA*kG*k[5mC]; antisense) [Compound 958646],26 % UTC

# Same assay, conditions: Table 10; A-431 cells, 5,000 cells per well, free uptake, 2,000 nM oligonucleotide, approx. 48 hours; primer probe set RTS36584; Yap1 mRNA normalized to RIBOGREEN, percent of untreated control
row,Substance,YAP1 (% UTC)
1,958502 (k[5mC]*kT*kA*dT*dT*dA*dA*d[5mC]*dA*dG*dA*dT*dT*k[5mC]*kA*k[5mC]; antisense) [Compound 958502],13 % UTC

# Same assay, conditions: Table 11; A-431 cells, 5,000 cells per well, free uptake, 2,000 nM oligonucleotide, approx. 48 hours; primer probe set RTS36584; Yap1 mRNA normalized to RIBOGREEN, percent of untreated control
row,Substance,YAP1 (% UTC)
1,958628 (antisense kG*k[5mC]*kT*dA*dA*d[5mC]*dT*dA*d[5mC]*dA*dT*dT*dG*k[5mC]*kA*kG) [Compound 958628],81 % UTC
2,958613 (antisense k[5mC]*k[5mC]*kT*dG*dA*dA*dG*d[5mC]*d[5mC]*dG*dA*dG*dT*kT*k[5mC]*kA) [Compound 958613],15 % UTC
3,958708 (antisense kA*kT*kG*dT*d[5mC]*dA*dG*dA*dT*dG*dT*d[5mC]*dA*kA*kT*kT) [Compound 958708],19 % UTC
4,958728 (antisense kT*kA*kT*d[5mC]*dT*dG*dT*d[5mC]*dA*dG*dT*dT*dA*kT*k[5mC]*k[5mC]) [Compound 958728],10 % UTC

# Same assay, conditions: Table 12; A-431 cells, 5,000 cells per well, free uptake, 2,000 nM modified oligonucleotide, approx. 48 hours; RTS36584; normalized to RIBOGREEN; Yap1 mRNA relative to untreated control cells
row,Substance,YAP1 (% UTC)
1,958659 (kG*kT*kT*dG*dT*dA*dT*dT*dA*d[5mC]*dT*d[5mC]*dT*k[5mC]*k[5mC]*kA; antisense) [Compound 958659],2 % UTC
2,958819 (kT*kG*k[5mC]*dT*dT*d[5mC]*dA*dA*d[5mC]*dA*dT*dT*dG*kT*kT*k[5mC]; antisense) [Compound 958819],9 % UTC
3,958749 (antisense k[5mC]*k[5mC]*kA*d[5mC]*dA*dA*dG*dG*dG*d[5mC]*dA*dG*dT*kA*k[5mC]*kG) [Compound 958749],51 % UTC

# Same assay, conditions: Table 13; A-431 cells, 5,000 cells per well, free uptake, 2,000 nM modified oligonucleotide, approx. 48 hours; RTS36584; normalized to RIBOGREEN; Yap1 mRNA relative to untreated control cells
row,Substance,YAP1 (% UTC)
1,958510 (kT*kA*k[5mC]*d[5mC]*dA*d[5mC]*dA*d[5mC]*dT*dA*dT*dT*dA*kT*kA*kA; antisense) [Compound 958510],43 % UTC
2,958740 (antisense k[5mC]*kG*kG*d[5mC]*dA*d[5mC]*d[5mC]*dA*dA*dA*d[5mC]*dA*d[5mC]*k[5mC]*k[5mC]*kA) [Compound 958740],57 % UTC

# Same assay, conditions: Table 26; Yap1 mRNA by 3-10-3 cEt gapmers targeting SEQ ID NO.: 1, and 2; percent of untreated control
row,Substance,YAP1 (% UTC)
1,1075180 (kT*kA*kT*dT*dA*d[5mC]*dT*dA*d[5mC]*dA*dA*d[5mC]*d[5mC]*kA*kT*kA; antisense) [compound 1075180],56 % UTC
2,1075756 (kA*kT*kT*dT*dA*d[5mC]*d[5mC]*d[5mC]*dT*dG*d[5mC]*d[5mC]*dA*k[5mC]*kT*kT; antisense) [compound 1075756],49 % UTC
3,1075692 (kT*kA*kA*dG*dA*dA*d[5mC]*dA*d[5mC]*d[5mC]*dA*dT*dA*kG*k[5mC]*kA; antisense) [compound 1075692],11 % UTC

# Same assay, conditions: Table 27; Yap1 mRNA by 3-10-3 cEt gapmers targeting SEQ ID NO.: 1, and 2; percent of untreated control
row,Substance,YAP1 (% UTC)
1,1075117 (k[5mC]*k[5mC]*kT*d[5mC]*dA*dA*dT*dA*dG*d[5mC]*dA*dA*dG*kA*k[5mC]*kA; antisense) [compound 1075117],48 % UTC
2,1076365 (antisense kT*kA*kA*dG*dA*dA*dG*dG*dG*d[5mC]*d[5mC]*dA*dA*kT*kG*kG) [compound 1076365],15 % UTC

# Same assay, conditions: Table 29; Yap1 mRNA as percent of untreated control; 3-10-3 cEt gapmers targeting SEQ ID NO.: 1, and 2
row,Substance,YAP1 (% UTC)
1,1074223 (antisense kG*kA*kA*dA*d[5mC]*dA*dG*d[5mC]*dT*d[5mC]*d[5mC]*d[5mC]*dA*kA*k[5mC]*kT) [compound 1074223],48 % UTC
2,1075439 (antisense kA*kA*kT*dT*dA*dG*dA*dG*dA*dT*dA*dT*dG*kG*kA*k[5mC]) [compound 1075439],77 % UTC
3,1076335 (antisense k[5mC]*kA*k[5mC]*d[5mC]*dT*dA*dT*dA*dA*dG*dG*dA*dA*kT*kG*kG) [compound 1076335],80 % UTC
4,1075791 (k[5mC]*kT*kT*dT*dA*dT*d[5mC]*dA*dG*d[5mC]*d[5mC]*dA*dT*k[5mC]*kA*k[5mC]; antisense) [compound 1075791],10 % UTC
5,1075759 (k[5mC]*k[5mC]*kT*dT*dA*dT*dA*dA*dA*dT*dT*dA*dT*kG*kA*k[5mC]; antisense) [compound 1075759],44 % UTC

# Same assay, conditions: Table 34; Yap1 mRNA as percent of untreated control; 3-10-3 cEt gapmers targeting SEQ ID NO: 1 and 2; single dose
row,Substance,YAP1 (% UTC)
1,1075604 (antisense kA*kT*kA*dA*dT*dT*dA*dA*dG*d[5mC]*dT*dA*dT*k[5mC]*kA*k[5mC]) [compound 1075604],81 % UTC
2,1076532 (kA*kT*kT*dT*dT*dT*dA*dG*dG*d[5mC]*dA*dG*dA*k[5mC]*kG*k[5mC]; antisense) [compound 1076532],12 % UTC
3,1075956 (kT*kA*kT*dA*dA*dA*dG*d[5mC]*dA*dA*dT*dG*d[5mC]*kG*kA*kT; antisense) [compound 1075956],27 % UTC
4,1074708 (antisense k[5mC]*kT*kT*dT*dA*dA*dT*dG*dG*d[5mC]*dA*dG*d[5mC]*kA*k[5mC]*kG) [compound 1074708],55 % UTC
5,1075572 (antisense k[5mC]*kA*kA*dT*dT*dT*dA*dA*d[5mC]*dT*dG*dT*dT*kA*k[5mC]*kA) [compound 1075572],84 % UTC
6,1075796 (kA*kG*kT*dA*dA*dT*dT*dA*dT*dA*dT*dA*d[5mC]*k[5mC]*k[5mC]*kA; antisense) [compound 1075796],64 % UTC
7,1075380 (antisense kA*k[5mC]*kT*dA*dA*dA*dA*d[5mC]*dT*dG*dA*d[5mC]*dT*kG*kT*k[5mC]) [compound 1075380],94 % UTC

# Same assay, conditions: Table 35; Yap1 mRNA as percent of untreated control; 3-10-3 cEt gapmers targeting SEQ ID NO: 1 and 2; single dose
row,Substance,YAP1 (% UTC)
1,1075573 (antisense kA*kA*kG*dG*dA*dA*d[5mC]*d[5mC]*dT*dT*d[5mC]*dT*dG*kT*kG*kT) [compound 1075573],72 % UTC
2,1075637 (antisense k[5mC]*k[5mC]*kA*d[5mC]*dA*dA*d[5mC]*d[5mC]*dT*dG*dT*d[5mC]*dA*kA*kT*kA) [compound 1075637],100 % UTC

# Reference: patent US11214803B2, “Modulators of YAP1 expression” (Ionis Pharmaceuticals, Inc., priority 2019, dated 2022)
